Target: Carbonyl reductase [NADPH] 3 (Homo sapiens) (UniProt O75828)
Experiment: ligand binding to human carbonyl reductase 3 – biophysical, DSF, SYPRO orange, recombinant protein (AID 512)
Conditions: recombinant CBR3, DSF SYPRO orange thermal shift; at 10 µM; buffer 10 mM HEPES; pH 7.5; NaCl 150 mM; NADP 100 µM; protein 2 µM; stronger effect = higher value

Sequence of Carbonyl reductase [NADPH] 3 (Homo sapiens) (O75828 whole entry, looked up): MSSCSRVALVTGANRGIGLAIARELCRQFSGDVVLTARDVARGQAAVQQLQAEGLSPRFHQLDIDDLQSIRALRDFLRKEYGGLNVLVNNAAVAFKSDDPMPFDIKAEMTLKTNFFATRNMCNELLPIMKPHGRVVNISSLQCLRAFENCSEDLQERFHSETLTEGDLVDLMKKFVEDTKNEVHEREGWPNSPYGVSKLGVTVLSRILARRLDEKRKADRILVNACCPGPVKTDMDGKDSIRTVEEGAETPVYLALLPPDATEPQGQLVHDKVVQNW

**Q.** How did the Tm shift turn out when `Brc1ccc(-c2[nH]c(-c3c[nH]c4ccccc34)nc2-c2ccccc2)cc1` was run?
**A.** 2.1 Celsius

**Q.** How did the Tm shift turn out when `Cc1ccc2c(c1)=C(c1[nH]c(=S)[nH]c1O)C(=O)N=2` was run?
**A.** 2.4 Celsius

**Q.** How did the Tm shift turn out when `COc1cc(/C=C/C(=O)CC(=O)/C=C/c2ccc(O)c(OC)c2)ccc1O` was run?
**A.** 3.1 Celsius

Same assay, conditions: recombinant CBR3, DSF SYPRO orange thermal shift; at 10 µM; buffer 10 mM HEPES; pH 7.5; NaCl 150 mM; protein 2 µM; stronger effect = higher value

**Q.** Which Tm shift does the source give for `CCN(CC)C(=S)SSC(=S)N(CC)CC` here?
**A.** 2.5 Celsius

**Q.** `O=c1oc2cc(O)ccc2c2oc3cc(O)ccc3c12` was tested. Which Tm shift did it give?
**A.** 3.1 Celsius

**Q.** For `O=C1C(=O)C(c2ccc(O)cc2O)Oc2cc(O)cc(O)c21` (centres undefined), which Tm shift is on record?
**A.** 2.2 Celsius

**Q.** `O=C1C(=O)C(c2ccc(O)cc2)Oc2cc(O)cc(O)c21` (centres undefined) was tested. Which Tm shift did it give?
**A.** 2.1 Celsius

**Q.** For `NC(=O)c1ccc[n+](C2OC(COP(=O)(O)OP(=O)(O)OCC3OC(n4cnc5c(N)ncnc54)C(OP(=O)(O)O)C3O)C(O)C2O)c1` (centres undefined), which Tm shift is on record?
**A.** 4.4 Celsius

Same assay, conditions: recombinant CBR3, DSF SYPRO orange thermal shift; measured here: second experiment Tm shift; at 10 µM; run 2; buffer 10 mM HEPES; pH 7.5; NaCl 150 mM; NADP 100 µM; protein 2 µM; stronger effect = higher value

**Q.** `COc1cc(/C=C/C(=O)CC(=O)/C=C/c2ccc(O)c(OC)c2)ccc1O` was tested. Which Tm shift did it give?
**A.** 2.4 Celsius

— PubChem BioAssay AID512
